Here are results for seven compounds from patent EP0728482A2, “Use of hcp specific compounds to enhance erythropoiesis” (SMITHKLINE BEECHAM CORPORATION, priority 1995, dated 1996).

The Ki is the dissociation constant of the complex between target and ligand, obtained from inhibition or displacement. By IC50 is commonly meant the concentration that gives 50% inhibition. High values mean lower potency, low ones higher potency.

The target in assay [1] is T1, human src SH2 domain (Homo sapiens, UniProt P12931).
T1 construct: made in house; host or cells: E. coli AR120
In words: ELISA-based SH2 domain / pY peptide binding assay, src SH2 domain. The settings on record: for Ki: Ki calculated from IC50 with the expanded equation; for IC50: inhibition of binding of 0.1 uM biotinylated pY peptide to SH2 domain fusion protein. How it is done: (§1) The inhibitory activity of compounds at the different human SH2 domains was determined in vitro using SH2 domains expressed as fusion proteins in E. coli. The SH2 domains used herein were the human forms of the src SH2 domain, Grb2 SH2 domain, lck SH2 domain, fyn SH2 domain, SH-PTP2 SH2 domain, p85 SH2 domain and hcp SH2 domain.
The fusion proteins containing the src, lck and hcp SH2 domains were expressed as the general sequence: DET1-DET2-spacer-ek-SH2, where DET1, DET2, spacer, ek and SH2 are as described below. DET1 ("defined epitope tag 1") (SEQ ID NO: 1) is an 11 amino acid sequence found in the Human Immunodeficiency Virus Type 1 (HIV-1) envelope protein gp120 (or gp160). Monoclonal antibodies to various epitopes of HIV-1 gp120 (or gp 160) are known in the art, see, for example U.S. Patent 5,166,050. One preferred example is monoclonal antibody 178.1 (see, e.g., Thiriart et al., J. Immunol., 143:1832-1836 (1989)), which was prepared by immunization of mice with a yeast-expressed HIV-1 gp160 molecule from strain BH10 (Ratner et al., Nature, 313:277-284 (1985)). This tag was used for detection of expression (by Western blot), for purification of the protein (by affinity chromatography), and for configuring assays in which the fusion protein was captured or immobilized using the 178.1 antibody. DET2 is a hexa-histidine sequence tag (SEQ ID NO: 2) which binds to nickel-containing resins and was used for purification purposes. Spacer (SEQ ID NO: 3) was utilized to design a BamH1 restriction site at the indicated position of the construct. The term -ek-refers to a recognition sequence (SEQ ID NO: 4) for the enterokinase protease which provides for the optional removal of the tags from the SH2 domain, thus producing an SH2 domain that contains no extraneous amino acids. SH2 domains which contain no extraneous amino acids are preferable to tagged protein for crystallography studies. SH2 refers to the SH2 domains of different proteins.
Procedure 2: Cloning, expression and purification of human src SH2 domain containing tags and an enterokinase proteolytic cleavage site (DET1-DET2-spacer-ek-src SH2).
A DNA sequence encoding protein ek-src SH2 was PCR amplified from a cDNA clone containing the human src gene (c-src SH2 DNA sequence identical to that described in Takeya,T. and Hanafusa, H, 1983 Cell 32:881-890) using the following primers: [formula]
The PCR product was digested with BamHI and XbaI, followed by isolation of the digested fragment on an agarose gel. The fragment was ligated into BamHI-XbaI-digested expression vector containing the tagged chicken src gene DET1-DET2-spacer-SH2 described in Procedure 1 above. In that vector, the BamHI site is located between the coding regions for DET2 and SH2, and the XbaI site is located after the 3' end of the SH2 coding region. The ligation reaction was used to transform E. coli MM294cI^+. The construct DET1-DET2-spacer-ek-src SH2 was confirmed by DNA sequencing (SEQ ID NO: 5) and induced in E. coli strain AR120 as described in Procedure 1 above. A Coomassie-Blue-stained, Western-blot-positive induced protein band with an apparent molecular weight of 16,000 was observed after nalidixic acid induction.
Cells were lysed at neutral pH by sonication in the presance of lysozyme. After centrifugation, the soluble extract was chromatographed on a Ni^++NTA column. After washing the column with equilibration buffer (Tris buffer pH 8 containing 0.5 M Nacl) and the same buffer containing 15 mM imidazole, the protein was eluted in highly purified form with 25 mM imidazole in equilibration buffer.
The binding assays for the SH2 domains and pY peptides were performed in an ELISA-based 96 well plate assay. […]

Assay [2] relates to B6D2F1 female mice. The assay is described as follows: murine reticulocyte assay (Hayakawa assay). The assay is classed as in vivo. The note with it: oral gavage, once a day for 7 days. How it is done:
The efficacy of hcp SH2 domain antagonist to enhance erythropoiesis is related to their ability to increase reticulocyte production in the murine reticulocyte assay (Hayakawa T, et al. Biologicals 20; 253 (1992) and Hayakawa T, et al. Biologicals 20; 243 (1992), (collectively hereinafter 'Hayakawa')).
L-3,5-Dibromo-3'-(6-oxo-3(1H)-pyridazinylmethyl)-thyronine (Compound 2) was tested for its in vivo potency to increase reticulocyte production in the Hayakawa assay.
To perform the experiment a total of 12 B6D2F1 female mice were used. The animals were administered Compound 2 (the compound was dissolved in water, pH 11, and administered by oral gavage) once a day for 7 days. At the end of the treatment period blood was collected from the animals and reticulocyte count was determined by known methods. (Hayakawa)

For assay [3], the system named is human hcp SH2 domain. In words: ELISA-based SH2 domain / pY peptide binding assay, hcp SH2 domain. The settings on record: hcp SH2 domain versus src, lck, fyn, SH-PTP2, p85, Grb2 SH2 domains. How it is done: as §1
The fusion proteins containing the src, lck and hcp SH2 domains were expressed as the general sequence: DET1-DET2-spacer-ek-SH2, where DET1, DET2, spacer, ek and SH2 are as described below. DET1 ("defined epitope tag 1") (SEQ ID NO: 1) is an 11 amino acid sequence found in the Human Immunodeficiency Virus Type 1 (HIV-1) envelope protein gp120 (or gp160). Monoclonal antibodies to various epitopes of HIV-1 gp120 (or gp 160) are known in the art, see, for example U.S. Patent 5,166,050. One preferred example is monoclonal antibody 178.1 (see, e.g., Thiriart et al., J. Immunol., 143:1832-1836 (1989)), which was prepared by immunization of mice with a yeast-expressed HIV-1 gp160 molecule from strain BH10 (Ratner et al., Nature, 313:277-284 (1985)). This tag was used for detection of expression (by Western blot), for purification of the protein (by affinity chromatography), and for configuring assays in which the fusion protein was captured or immobilized using the 178.1 antibody. […]

“Also recorded” adds a separate entry of the source.

As for “4-acetamido-benzamido-trans-4-methyl-cyclohexyl-N-1-(amino-R-2-(methoxy methyl)-pyrrolidine) carboxamide [Compound 8]”, in assay [1], the Ki is 12 µM and the IC50 amounted to 16 µM.

Take `Cc1nnc(SCC2=C(C(=O)O)N3C(=O)[C@@H](NC(=O)C(N)c4ccc(C(=O)O)cc4)[C@H]3SC2)s1` (stereo partly drawn) [Compound 1, 7-[D,L-α-Amino-α-(4-carboxyphenyl)acetamido]-3-[2-(5-methyl-1,3,4-thiadiazolyl)thiomethyl]Δ^3-cephem-4-carboxylic Acid]: in assay [1], the Ki is 7 µM and the IC50 was determined as 6 µM.

Consider `N[C@@H](Cc1cc(Br)c(Oc2ccc(O)c(Cc3ccc(=O)[nH]n3)c2)c(Br)c1)C(=O)O` [Compound 2, L-3,5-Dibromo-3'-(6-oxo-3(1H)-pyridazinylmethyl)-thyronine], for which the Reticulocytes in assay [2] (200 mg/kg/day) is 321.0 ± 46.3 10^9/L; in assay [2] (400 mg/kg/day) it was 310.8 ± 24.8 10^9/L; in assay [2] (800 mg/kg/day), 375.2 ± 51.6 10^9/L.

For `Cc1nc2sc3c(c2c2[nH][nH]c(=O)c12)CCC1(C3)OCCO1` [Compound 3, 8,8-Ethylenedioxy-2,3,7,8,9,10-hexahydro-4-methyl-1H-benzo[b]thieno[2,3-b]pyrazolo[3,4-d]pyridin-3-one], in assay [1], the Ki is 6 µM and the IC50 came out at 16.1 µM.

Regarding `Cc1ccc(C(=O)c2ccc(C(=O)c3ccc(CC=O)cc3)cc2)cc1` [Compound 4, 4-[4-(4-Methylbenzoyl)benzoyl]phenylacetaldehyde], in assay [1], the Ki was 40 µM and the IC50 worked out at 40 µM.

Consider `Cc1nc2sc3c(c2c2c1c(=O)[nH]n2C)CCC1(C3)OCCO1` [Compound 5, 1,4-Dimethyl-8,8-ethylenedioxy-2,3,7,8,9,10-hexahydro-1H-benzo[b]thieno[2,3-b]pyrazolo[3,4-d]pyridin-3-one], for which, in assay [1], the Ki is 28 µM and the IC50 was 63 µM. Moreover, in assay [3], the “binding affinities/inhibitory concentrations at the hcp SH2 domain than at other SH2 domains” value is reported as “greater than fifty-fold higher; also recorded: greater than one hundred-fold higher”.

On to `CCCNC(=O)[C@H]1CC[C@H](CNC(=O)/C=C/c2ccc(C=O)cc2)CC1` [Compound 9, 4-formyl-E-cinnamido-trans-4-methyl-cyclohexyl-N-(propyl) carboxamide], for which, in assay [1], the Ki was 55 µM and the half-maximal inhibitory concentration (IC50) is 131 µM.
